# According to publication PMC5011342, “A high throughput drug screening assay to identify compounds that promote oligodendrocyte differentiation using acutely dissociated and purified oligodendrocyte precursor cells” (BMC Research Notes, 2016):
# Read-outs that look alike come from different tables or passages of the source.
# Tests used:
# [1] = test system: expanded OPCs; assay: cells; details: for viability at 0.1 µM / viability at 1 µM / viability at 10 µM: Rattus norvegicus, 72 h; for 0.1 µM (% DMSO) / 1 µM (% DMSO) / 10 µM (% DMSO): alamarBlue viability of expanded OPCs, relative to DMSO control; for 0.1 µM (% DMSO): compound at 0.1 µM; for 1 µM (% DMSO): compound at 1 µM; for 10 µM (% DMSO): compound at 10 µM
# How it was run: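 Expanded OPCs seeded at 10,000 cells/well in differentiation media, then exposed to NCC library compounds at 10, 1 and 0.1 µM (quadruplicate, 0.1% DMSO) for three days. Viability read as alamarBlue fluorescence (560/590 nm) after 4 h at 37 °C; tunicamycin 5 ng/ml served as toxicity control.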
# [2] = test system: acutely dissociated and purified rat OPCs; assay: Acute OL differentiation assay (MBP expression/cell, immunofluorescent image quantification); assay type: cell-based; details: for activation at 0.08 µM: test compound at 0.08 uM, read-out: 0.08 uM (% Quet)
# How it was run: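 Oligodendrocyte precursor cells were enriched from P6-P7 Sprague–Dawley rat brains by immunopanning (RAN-2 and GalC depletion, O4 selection), plated at 5000 cells/well in serum-free, mitogen-free differentiation media on PDL/laminin 96-well view plates, centrifuged at 200×g, and pre-incubated 1–2 h before test compounds were added in quadruplicate. On DIV4, cells were fixed, stained for MBP and DAPI, imaged automatically, and MBP expression per cell was quantified.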
# [3] = read-out: 0.1 µM (% DMSO), alamarBlue viability of expanded OPCs, compound at 0.1 µM, sheet All Tox data
# [4] = read-out: 1 µM (% DMSO), alamarBlue viability of expanded OPCs, compound at 1 µM, sheet All Tox data
# [5] = read-out: 10 µM (% DMSO), alamarBlue viability of expanded OPCs, compound at 10 µM, sheet All Tox data
# [6] = Rattus norvegicus, 2 uM test compound, relative to quetiapine, sheet "All OLga data", read-out: OL differentiation, 2 uM (% Quet)
# [7] = Rattus norvegicus, 10 uM test compound, relative to quetiapine, sheet "All OLga data", read-out: OL differentiation, 10 uM (% Quet)
# [8] = read-out: 0.1 µM (% DMSO), alamarBlue viability, NCC library compound at 0.1 µM, sheet "All Tox data"
# [9] = read-out: 1 µM (% DMSO), alamarBlue viability, NCC library compound at 1 µM, sheet "All Tox data"
# [10] = read-out: 10 µM (% DMSO), alamarBlue viability, NCC library compound at 10 µM, sheet "All Tox data"
# [11] = Rattus norvegicus, NCC library screen, sheet "All OLga data", relative to quetiapine
# [12] = Rattus norvegicus, test compound at 0.4 uM, NCC library screen, sheet "All OLga data", relative to quetiapine, read-out: 0.4 uM (% Quet)
# [13] = Rattus norvegicus, test compound at 2 uM, NCC library screen, sheet "All OLga data", relative to quetiapine, read-out: 2 uM (% Quet)
# [14] = Rattus norvegicus, test compound at 10 uM, NCC library screen, sheet "All OLga data", relative to quetiapine, read-out: 10 uM (% Quet)
SMILES,0.1 µM (% DMSO) [1],1 µM (% DMSO) [1],10 µM (% DMSO) [1],"activation at 2 µM [2, 6]","viability at 0.1 µM [1, 8]","viability at 1 µM [1, 9]","viability at 10 µM [1, 10]","activation at 2 µM [2, 13]","activation at 10 µM [2, 14]",other results
N[C@@H]1CON=C1O [Cycloserine],89.7 % DMSO,97.0 % DMSO,89.5 % DMSO,4.1%,,,,,,"viability at 0.1 µM [1, 3]: 82.2%; viability at 1 µM [1, 4]: 87%; viability at 10 µM [1, 5]: 97.4%; activation at 10 µM [2, 7]: 13.9%; activation at 2 µM ([2]; Rattus norvegicus, test compound at 2 uM, MBP expression relative to quetiapine, NCC library screen, sheet ""All OLga data"", read-out: 2 uM (% Quet)): -13.8%; activation at 10 µM ([2]; Rattus norvegicus, test compound at 10 uM, MBP expression relative to quetiapine, NCC library screen, sheet ""All OLga data"", read-out: 10 uM (% Quet)): -23%"
CN1CCC(=C2c3ccccc3C=Cc3ccccc32)CC1 [Cyproheptadine],,,,,71.2%,49.3%,25.2%,,,"activation at 0.08 µM [2, 11]: -0.6%; activation at 0.4 µM [2, 12]: 10.3%"
Nc1ccn([C@@H]2O[C@H](CO)[C@@H](O)[C@@H]2O)c(=O)n1 [Cytarabine],,,,5.8%,,,,,,"viability at 0.1 µM [1, 3]: 60.2%; viability at 1 µM [1, 4]: 56.2%; viability at 10 µM [1, 5]: 43.1%; activation at 0.4 µM ([2]; Rattus norvegicus, 0.4 uM test compound, relative to quetiapine, sheet ""All OLga data"", read-out: OL differentiation, 0.4 uM (% Quet)): -18.7%"
"C[N+]1(C)CCN(c2ccccc2)CC1 [DMPP, dimethylphenylpiperazinium, reference compound]",,,,40.6%,101%,89.5%,111%,,,"activation at 10 µM [2, 7]: 54.3%; EC50 ([2]; Rattus norvegicus, average EC50 for induction of OL differentiation from independent biological replicates, eight concentrations): 13 µM; hit in OL differentiation assay, MRF-TMC ([2]; ● = confirmed hit in this paper's assay): ●"
C#C[C@]1(O)CC[C@H]2[C@@H]3CCC4=Cc5oncc5C[C@]4(C)[C@H]3CC[C@@]21C [Danazol],95.3 % DMSO,92.4 % DMSO,47.1 % DMSO,,,,,24.1%,,"activation at 0.4 µM [2, 12]: 9.4%"
O.O.O=C1N=C([O-])CN1/N=C/c1ccc(-c2ccc([N+](=O)[O-])cc2)o1.[Na+] [Dantrolene sodium salt dihydrate],93.5 % DMSO,100.3 % DMSO,91.7 % DMSO,,,,,,,"2 uM (% Quet) ([2]; test compound at 2 uM, MBP expression relative to quetiapine, NCC library screen, sheet ""All OLga data""): -16.0 % Quet; 10 uM (% Quet) ([2]; test compound at 10 uM, MBP expression relative to quetiapine, NCC library screen, sheet ""All OLga data""): -55.0 % Quet"
Nc1ccc(S(=O)(=O)c2ccc(N)cc2)cc1 [Dapsone],101.9 % DMSO,96.3 % DMSO,99.0 % DMSO,,,,,-13.2%,-22.2%,
Cc1c(O)c(=O)ccn1C [Deferiprone],,,,6.6%,,,,,,"viability at 0.1 µM [1, 3]: 91.3%; viability at 1 µM [1, 4]: 90.1%; viability at 10 µM [1, 5]: 84.8%; activation at 10 µM [2, 7]: 37.1%"
C[C@H](CCC(=O)O)[C@H]1CC[C@H]2[C@@H]3C(=O)C[C@@H]4CC(=O)CC[C@]4(C)[C@H]3CC(=O)[C@]12C [Dehydrocholic Acid],,,,,101%,106%,109%,-12.3%,-5.3%,
C[C@]12CC[C@H](O)CC1=CC[C@@H]1[C@@H]2CC[C@]2(C)C(=O)CC[C@@H]12 [Dehydroepiandrosterone],,,,,92%,87.5%,83.1%,-23.8%,-57.9%,
CN(C)[C@@H]1C(O)=C(C(N)=O)C(=O)[C@@]2(O)C(O)=C3C(=O)c4c(O)ccc(Cl)c4[C@@H](O)[C@H]3C[C@@H]12 [Demeclocycline],,,,,96.3%,90.6%,88.4%,-7.5%,-21%,
CNCCCN1c2ccccc2CCc2ccccc21 [Desipramine],75.5 % DMSO,43.8 % DMSO,16.4 % DMSO,,,,,,,"activation at 0.08 µM ([2]; Rattus norvegicus, MBP expression relative to quetiapine, NCC library screen, sheet ""All OLga data""): 8.9%; activation at 0.4 µM ([2]; Rattus norvegicus, test compound at 0.4 uM, MBP expression relative to quetiapine, NCC library screen, sheet ""All OLga data"", read-out: 0.4 uM (% Quet)): -5.3%"
Clc1ccc2c(c1)CCc1cccnc1C2=C1CCNCC1 [Desloratadine],,,,,61%,29%,10.5%,,,"activation at 0.08 µM [2, 11]: -28%; activation at 0.4 µM [2, 12]: -84.8%"
